For assay [1], the system named is primary human hepatocytes. In words: Cytotoxicity assay on primary human hepatocytes (CellTiter-Glo, 48 h). Format: cell-based. The following applies: Hepatocyte, cell viability, 48 h incubation. As for the experimental part:
Example 26: Cytotoxicity Assay of Compounds on Primary Human Hepatocytes
Primary human hepatocytes were purchased from Biorecamation IVT. Co., Ltd. (lot no.: AKB/S1391); the components of in vitro culture media of primary human cell and suppliers are as follows:
1. Frozen primary human hepatocytes were thawed, then resuspended in a culture medium containing 10% FBS. The cells were transferred into a 96-well plate, at 8×10^4 cells/well, followed by incubating overnight in an incubator at 5% CO2 at 37° C.;
2. […] The test compounds and control drug were added to wells, at 100 μL/well, to form test compound wells or reference wells, and the culture medium containing 10% FBS was added to wells, at 100 μL/well, as negative control. The cells were incubated in an incubator in the presence of 5% CO2 at 37° C. for 48 h.
3. The primary human hepatocytes were washed with PBS (0.1 M, pH=7.4) twice, and were added with CellTiter-Glo reagent at 100 μL/well. Cell-free wells added with CellTiter-Glo reagent at 100 μL/well served as the blank control. The 96-well plate was shaken on a shaker for 5 min, and then left at room temperature for 10 min.
4. The chemiluminescence values were detected using Victor X4 (Perkin Elmer). The chemiluminescence values of the test compound wells were denoted as F(test compound), the chemiluminescence values of the blank control wells were denoted as F(blank), and the chemiluminescence values of the negative control wells were denoted as F(negative control). The cell viabilities at different concentrations were calculated according to the following formula. Each concentration was measured in triplicate to give the average and the standard deviation.
5. The half maximal inhibitory concentration (IC50) of the test compounds to the primary human hepatocytes were calculated using Prism Graph software.
For orientation: Cellular ATP, detected with luciferase, serves as a proxy for viable cell number.

For the next assay, the target named is T1, hURAT1 (Homo sapiens, UniProt Q96S37).
T1 construct: expressed in transfected cells
T1 sequence (Q96S37 1-553): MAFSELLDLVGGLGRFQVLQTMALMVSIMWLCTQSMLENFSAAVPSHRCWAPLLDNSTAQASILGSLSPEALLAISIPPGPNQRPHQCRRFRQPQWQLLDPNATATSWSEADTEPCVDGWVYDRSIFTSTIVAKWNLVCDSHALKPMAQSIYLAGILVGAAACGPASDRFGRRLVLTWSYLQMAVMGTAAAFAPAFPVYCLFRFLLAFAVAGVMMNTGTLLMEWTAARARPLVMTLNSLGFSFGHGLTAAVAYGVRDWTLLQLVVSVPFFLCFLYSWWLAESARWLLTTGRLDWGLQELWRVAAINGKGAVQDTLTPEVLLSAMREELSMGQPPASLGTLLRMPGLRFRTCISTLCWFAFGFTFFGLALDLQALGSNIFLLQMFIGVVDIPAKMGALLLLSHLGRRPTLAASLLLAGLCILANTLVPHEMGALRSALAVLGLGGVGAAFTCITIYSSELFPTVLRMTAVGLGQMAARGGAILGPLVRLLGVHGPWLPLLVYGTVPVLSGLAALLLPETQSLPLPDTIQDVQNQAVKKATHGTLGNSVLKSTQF
In words: Inhibition of 14C-uric acid uptake by hURAT1 in HEK293-transfected cells. The assay is classed as cell-based. The following applies: HEK-293T cells stably expressing hURAT1, 14C-uric acid uptake, 5 min at 37° C. As for the experimental part: 1. Cell Culture and Inoculation
2) When the cells covered 80% of the culture medium, the culture medium was removed. The cells were washed with PBS once, followed by digestion with pancreatin-EDTA. After detachment, the cells were added with a culture medium, exfoliated by pipetting, and centrifuged for harvesting. The harvested cells were added with a culture medium and mixed well to give a cell suspension.
3) The cell density was adjusted to 3×10^5 cells/mL, transferred into a white-wall, clear-bottom, 96-well cell culture plate with 100 μL/well, and incubated for 12-24 h.
1) A 20 mM stock solution of the compound was prepared with DMSO. Then the stock solution was diluted to a starting concentration of 2 mM with DMSO.
2) The solution was serially 4-fold diluted with DMSO from […] to the 10th concentration on a 96-well plate serving as the 100× plate, and respective quality controls were prepared.
3) The solutions in corresponding wells were 10-fold diluted with Cl-free HBSS buffer on another 96-well plate serving as the 10× plate.
4) Buffer containing 0.1 μCi/mL ^14C-uric acid, at 45 μL/well, and a 10× diluted compound, at 5 μL/well, were added to a third 96-well plate serving as the 1× plate for later use. The concentration of DMSO was 1%.
3. Uptake of ^14C-Uric Acid in Cells Stably Expressing hURAT1
1) The uptake assay was performed after the cultivated cells in 96-well plates adhered.
2) The cells were washed once with pre-heated buffer at 200 μL/well.
3) After the wells were dried, corresponding compounds (50 μL/well) and 0.1 μCi/mL ^14C-uric acid were immediately added.
4) The plate with the compound was incubated in a 37° C. incubator for 5 min.
5) 150 μL of ice-cold buffer was added to each well to terminate the uptake. Each well was washed three times with buffer. The cells were carefully washed to avoid detachment.
6) 50 μL of lysis buffer was added to each well, prior to shaking at 900 rpm on an oscillator for 5 min.
7) 150 μL of scintillation solution (Microint 40) was added to each well before shaking at 900 rpm for 5 min.
8) Finally, the microwell plate was transferred to a MicroBeta Trilux (PerkinElmer Co. Ltd.) for detection.
The data were analyzed and the IC50 of the quality controls and all test compounds on the plates were calculated using XL-fit software.

Molecules are shown by their SMILES. A value given as a limit tells only on which side of the number the result lay.

For `CCc1oc2ccccc2c1C(=O)c1cc(Br)c(O)c(Br)c1` [Benzbromarone, reference compound], the IC50 in assay [1] was 6650 nM.

With `CCc1oc2ccncc2c1C(=O)c1cc(Br)c(O)c(Br)c1` [Example 1, (3,5-dibromo-4-hydroxyphenyl)(2-ethylfuro[3,2-c]pyridin-3-yl) methanone], the IC50 at hURAT1 was less than 50 nM.

With `CCn1nc2ccc(F)cc2c1C(=O)c1cc(Br)c(O)c(Br)n1` [Example 8, (4,6-dibromo-5-hydroxypyridin-2-yl)(2-ethyl-5-fluoro-2H-indazol-3-yl)methanone], the IC50 at hURAT1 lay within 50 to 200 nM.

The IC50 is the concentration needed to halve the response being measured. A low value points to greater potency in that assay.

Values taken from patent US11453674B2, “Heterocyclic compound, preparation method and use thereof in medicine” (SUZHOU SINOVENT PHARMACEUTICALS CO., LTD., priority 2019, dated 2022).
